Laboratory results from ChEMBL document CHEMBL1743341, “Cytochrome p450 enzymes mechanism based inhibitors: common sub-structures and reactivity” (Curr Drug Metab, 2005).

Legend:
Cytochrome P450 3A4 [1] = target: T1, Cytochrome P450 3A4 (Homo sapiens, UniProt P08684); assay: (§1) Mechanism based inhibition of human cytochrome P450 3A4 measured by testosterone hydroxylation; assay type: ADME
CYP3A4 = CYP3A4 (Homo sapiens, UniProt P08684); assay: as §1; assay type: ADME; conditions: human, probe testosterone (hydroxylation)
Cytochrome P450 3A4 [2] = target: T1, Cytochrome P450 3A4; assay: Mechanism based inhibition of human cytochrome P450 3A4 measured by transformation of triazolam into its alpha-hydroxy and 4-hydroxy metabolites; assay type: ADME
CYP3A5 [3] = target: T2, CYP3A5 (Homo sapiens, UniProt P20815); assay: (§2) Mechanism based inhibition of human cytochrome P450 3A5 measured by testosterone hydroxylation; assay type: ADME; conditions: human, probe testosterone (hydroxylation)
Cytochrome P450 3A5 [4] = target: T3, Cytochrome P450 3A5 (Homo sapiens, UniProt P20815); assay: as §2; assay type: ADME
CYP2D6 = CYP2D6 (Homo sapiens, UniProt P10635); assay: (§3) Mechanism based inhibition of human cytochrome P450 2D6 measured by dextromethorphan O-demethylation; assay type: ADME; conditions: human, probe dextromethorphan
Cytochrome P450 2D6 [5] = target: T4, Cytochrome P450 2D6 (Homo sapiens, UniProt P10635); assay: as §3; assay type: ADME
Cytochrome P450 2D6 [6] = target: T4, Cytochrome P450 2D6; assay: Mechanism based inhibition of human cytochrome P450 2D6, partition ratio; assay type: ADME
Cytochrome P450 2C9 [7] = target: T5, Cytochrome P450 2C9 (Homo sapiens, UniProt P11712); assay: (§4) Mechanism based inhibition of human cytochrome P450 2C9; assay type: ADME
CYP2B6 = target: T6, CYP2B6 (Homo sapiens, UniProt P20813); assay: (§5) Mechanism based inhibition of human cytochrome P450 2B6; assay type: ADME; conditions: human
T6 sequence (P20813 whole entry): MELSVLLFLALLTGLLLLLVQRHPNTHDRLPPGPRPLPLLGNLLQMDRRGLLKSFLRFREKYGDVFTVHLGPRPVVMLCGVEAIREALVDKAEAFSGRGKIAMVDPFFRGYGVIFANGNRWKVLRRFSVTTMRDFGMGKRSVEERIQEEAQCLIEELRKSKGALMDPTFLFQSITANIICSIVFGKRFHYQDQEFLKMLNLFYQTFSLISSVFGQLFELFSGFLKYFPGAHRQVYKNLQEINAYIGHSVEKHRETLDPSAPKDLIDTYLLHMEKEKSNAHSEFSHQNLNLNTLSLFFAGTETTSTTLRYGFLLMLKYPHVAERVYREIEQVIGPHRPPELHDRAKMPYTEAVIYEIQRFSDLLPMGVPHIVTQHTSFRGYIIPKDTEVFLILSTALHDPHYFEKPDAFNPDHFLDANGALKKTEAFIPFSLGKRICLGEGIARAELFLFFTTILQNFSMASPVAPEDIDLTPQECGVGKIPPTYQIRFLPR

Cytochrome P450 2B6 [8] = target: T7, Cytochrome P450 2B6 (Homo sapiens, UniProt P20813); assay: as §5; assay type: ADME
T7 sequence (P20813 whole entry): T6 sequence (P20813 whole entry)

Cytochrome P450 2B1 [9] = target: T8, Cytochrome P450 2B1 (Rattus norvegicus, UniProt P00176); assay: Mechanism based inhibition of rat cytochrome P450 2B1, partition ratio; assay type: ADME
T8 sequence (P00176 whole entry): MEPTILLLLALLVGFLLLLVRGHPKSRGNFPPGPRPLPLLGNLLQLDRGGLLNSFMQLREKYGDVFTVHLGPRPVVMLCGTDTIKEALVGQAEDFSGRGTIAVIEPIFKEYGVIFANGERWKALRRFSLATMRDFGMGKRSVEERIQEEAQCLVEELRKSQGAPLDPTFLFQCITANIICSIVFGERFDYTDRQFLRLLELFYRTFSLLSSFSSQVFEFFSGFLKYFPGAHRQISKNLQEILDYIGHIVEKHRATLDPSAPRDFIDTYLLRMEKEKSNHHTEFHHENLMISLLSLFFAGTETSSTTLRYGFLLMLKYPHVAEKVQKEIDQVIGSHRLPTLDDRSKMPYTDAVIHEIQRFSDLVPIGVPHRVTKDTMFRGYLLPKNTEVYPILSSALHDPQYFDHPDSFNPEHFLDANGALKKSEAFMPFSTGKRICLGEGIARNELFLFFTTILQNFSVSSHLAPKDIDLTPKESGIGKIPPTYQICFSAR

CYP2B1 = target: T9, CYP2B1 (Rattus norvegicus, UniProt P00176); assay: (§6) Mechanism based inhibition of rat cytochrome P450 2B1; assay type: ADME; conditions: rat
T9 sequence (P00176 whole entry): T8 sequence (P00176 whole entry)

Cytochrome P450 2B1 [10] = target: T8, Cytochrome P450 2B1; assay: as §6; assay type: ADME
Cytochrome P450 2B6 [11] = target: T7, Cytochrome P450 2B6; assay: Mechanism based inhibition of human cytochrome P450 2B6, partition ratio; assay type: ADME
Cytochrome P450 2B1 [12] = target: T8, Cytochrome P450 2B1; assay: Mechanism based inhibition of rat cytochrome P450 2B1 measured by 7-ethoxyresorufin O-deethylation (EROD); assay type: ADME
Cytochrome P450 3A4 [13] = target: T1, Cytochrome P450 3A4; assay: Mechanism based inhibition of human cytochrome P450 3A4 measured by midazolam hydroxylase activity; assay type: ADME
CYP2C9 = CYP2C9 (Homo sapiens, UniProt P11712); assay: as §4; assay type: ADME; conditions: human
Cytochrome P450 2C9 [14] = target: T5, Cytochrome P450 2C9; assay: Mechanism based inhibition of human cytochrome P450 2C9, partition ratio; assay type: ADME
Cytochrome P450 3A6 [15] = target: T10, Cytochrome P450 3A6 (Oryctolagus cuniculus, UniProt P11707); assay: Mechanism based inhibition of rabbit cytochrome P450 3A6, partition ratio; assay type: ADME
Cytochrome P450 3A4 [16] = target: T1, Cytochrome P450 3A4; assay: Mechanism based inhibition of human cytochrome P450 3A4 measured by testosterone 6-beta hydroxylation; assay type: ADME
Cytochrome P450 3A6 [17] = target: T10, Cytochrome P450 3A6; assay: Mechanism based inhibition of rabbit cytochrome P450 3A6 measured by testosterone and progesterone 6-beta hydroxylation; assay type: ADME
Cytochrome P450 3A4 [18] = target: T1, Cytochrome P450 3A4; assay: Mechanism based inhibition of human cytochrome P450 3A4 measured by testosterone 6-beta hydroxylation and erythromycin N-demethylation; assay type: ADME
Cytochrome P450 2E1 = Cytochrome P450 2E1 (Homo sapiens, UniProt P05181); assay: (§7) Mechanism based inhibition of human cytochrome P450 2E1 measured in vivo; assay type: ADME, organism-based
CYP2E1 = CYP2E1 (Homo sapiens, UniProt P05181); assay: as §7; assay type: ADME, organism-based; conditions: human, in vivo
Cytochrome P450 2B4 = target: T11, Cytochrome P450 2B4 (Oryctolagus cuniculus, UniProt P00178); assay: (§8) Mechanism based inhibition of rabbit cytochrome P450 2B4; assay type: ADME
T11 sequence (P00178 whole entry): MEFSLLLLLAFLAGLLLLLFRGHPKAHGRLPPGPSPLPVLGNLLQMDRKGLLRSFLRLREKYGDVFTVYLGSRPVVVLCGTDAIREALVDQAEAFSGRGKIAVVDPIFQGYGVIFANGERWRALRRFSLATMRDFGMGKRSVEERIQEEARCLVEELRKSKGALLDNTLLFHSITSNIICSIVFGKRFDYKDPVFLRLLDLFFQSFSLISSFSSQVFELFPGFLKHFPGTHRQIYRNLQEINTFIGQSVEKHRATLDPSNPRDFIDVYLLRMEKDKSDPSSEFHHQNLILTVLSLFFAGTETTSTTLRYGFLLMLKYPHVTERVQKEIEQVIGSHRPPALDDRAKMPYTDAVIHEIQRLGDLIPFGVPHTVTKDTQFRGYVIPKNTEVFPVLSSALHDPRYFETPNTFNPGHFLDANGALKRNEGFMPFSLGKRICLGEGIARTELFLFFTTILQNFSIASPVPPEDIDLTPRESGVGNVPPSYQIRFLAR

CYP2B4 = target: T12, CYP2B4 (Oryctolagus cuniculus, UniProt P00178); assay: as §8; assay type: ADME; conditions: rabbit
T12 sequence (P00178 whole entry): T11 sequence (P00178 whole entry)

CYP3A5 [19] = target: T2, CYP3A5; assay: (§9) Mechanism based inhibition of human cytochrome P450 3A5; assay type: ADME; conditions: human
Cytochrome P450 3A5 [20] = target: T3, Cytochrome P450 3A5; assay: as §9; assay type: ADME
Cytochrome P450 3A5 [21] = target: T3, Cytochrome P450 3A5; assay: Mechanism based inhibition of human cytochrome P450 3A5, partition ratio; assay type: ADME

T3 sequence (P20815 whole entry): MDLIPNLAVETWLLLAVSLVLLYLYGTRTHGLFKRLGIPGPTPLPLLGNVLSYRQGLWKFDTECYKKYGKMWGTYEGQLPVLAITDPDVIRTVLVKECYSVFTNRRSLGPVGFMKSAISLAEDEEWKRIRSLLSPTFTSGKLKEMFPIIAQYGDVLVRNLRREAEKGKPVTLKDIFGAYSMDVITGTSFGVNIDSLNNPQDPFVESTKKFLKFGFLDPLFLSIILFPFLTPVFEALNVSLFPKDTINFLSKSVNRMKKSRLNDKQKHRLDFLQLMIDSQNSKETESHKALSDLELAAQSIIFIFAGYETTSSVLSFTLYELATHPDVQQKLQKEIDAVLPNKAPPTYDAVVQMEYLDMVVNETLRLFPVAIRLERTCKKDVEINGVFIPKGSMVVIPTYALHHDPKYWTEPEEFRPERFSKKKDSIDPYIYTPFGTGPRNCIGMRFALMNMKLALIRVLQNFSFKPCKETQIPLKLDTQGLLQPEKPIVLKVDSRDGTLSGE
T1 sequence (P08684 whole entry): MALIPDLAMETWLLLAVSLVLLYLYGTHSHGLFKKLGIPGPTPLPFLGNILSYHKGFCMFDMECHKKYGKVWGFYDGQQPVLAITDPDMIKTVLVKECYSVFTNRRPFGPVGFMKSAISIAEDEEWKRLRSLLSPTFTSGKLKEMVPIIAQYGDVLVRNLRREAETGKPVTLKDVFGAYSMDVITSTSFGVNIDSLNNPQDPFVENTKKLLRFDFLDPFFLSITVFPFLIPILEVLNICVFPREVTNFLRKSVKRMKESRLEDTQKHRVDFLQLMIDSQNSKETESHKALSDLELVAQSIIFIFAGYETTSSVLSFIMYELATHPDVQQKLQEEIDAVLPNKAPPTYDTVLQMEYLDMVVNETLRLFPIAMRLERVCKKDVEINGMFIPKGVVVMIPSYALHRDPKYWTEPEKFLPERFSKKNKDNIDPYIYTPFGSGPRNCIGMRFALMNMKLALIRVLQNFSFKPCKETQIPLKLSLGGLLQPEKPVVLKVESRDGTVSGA
T5 sequence (P11712 whole entry): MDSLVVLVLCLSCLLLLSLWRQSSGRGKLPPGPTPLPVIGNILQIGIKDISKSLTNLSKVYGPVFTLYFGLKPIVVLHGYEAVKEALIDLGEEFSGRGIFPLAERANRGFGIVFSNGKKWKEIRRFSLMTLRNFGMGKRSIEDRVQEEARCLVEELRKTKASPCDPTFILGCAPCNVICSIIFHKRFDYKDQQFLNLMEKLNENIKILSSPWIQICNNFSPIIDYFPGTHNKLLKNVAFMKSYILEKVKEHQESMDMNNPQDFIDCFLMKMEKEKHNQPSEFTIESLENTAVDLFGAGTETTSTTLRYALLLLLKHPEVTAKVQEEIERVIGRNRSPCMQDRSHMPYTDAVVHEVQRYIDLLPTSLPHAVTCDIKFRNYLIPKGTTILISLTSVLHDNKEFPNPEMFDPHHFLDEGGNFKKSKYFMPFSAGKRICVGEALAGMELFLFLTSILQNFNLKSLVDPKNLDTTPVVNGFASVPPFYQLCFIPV
T10 sequence (P11707 whole entry): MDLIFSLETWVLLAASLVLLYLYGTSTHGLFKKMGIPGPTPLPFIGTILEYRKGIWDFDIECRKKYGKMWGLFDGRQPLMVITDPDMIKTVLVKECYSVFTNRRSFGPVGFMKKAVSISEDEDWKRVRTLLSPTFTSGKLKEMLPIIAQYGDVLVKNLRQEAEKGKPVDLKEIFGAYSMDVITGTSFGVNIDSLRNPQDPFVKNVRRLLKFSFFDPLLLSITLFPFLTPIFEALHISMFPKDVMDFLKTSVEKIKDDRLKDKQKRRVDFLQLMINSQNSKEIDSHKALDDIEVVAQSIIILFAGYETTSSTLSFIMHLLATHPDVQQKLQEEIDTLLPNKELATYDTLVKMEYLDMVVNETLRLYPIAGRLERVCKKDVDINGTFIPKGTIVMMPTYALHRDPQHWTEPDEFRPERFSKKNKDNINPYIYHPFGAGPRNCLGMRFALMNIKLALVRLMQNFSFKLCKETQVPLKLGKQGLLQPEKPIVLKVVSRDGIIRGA
T4 sequence (P10635 whole entry): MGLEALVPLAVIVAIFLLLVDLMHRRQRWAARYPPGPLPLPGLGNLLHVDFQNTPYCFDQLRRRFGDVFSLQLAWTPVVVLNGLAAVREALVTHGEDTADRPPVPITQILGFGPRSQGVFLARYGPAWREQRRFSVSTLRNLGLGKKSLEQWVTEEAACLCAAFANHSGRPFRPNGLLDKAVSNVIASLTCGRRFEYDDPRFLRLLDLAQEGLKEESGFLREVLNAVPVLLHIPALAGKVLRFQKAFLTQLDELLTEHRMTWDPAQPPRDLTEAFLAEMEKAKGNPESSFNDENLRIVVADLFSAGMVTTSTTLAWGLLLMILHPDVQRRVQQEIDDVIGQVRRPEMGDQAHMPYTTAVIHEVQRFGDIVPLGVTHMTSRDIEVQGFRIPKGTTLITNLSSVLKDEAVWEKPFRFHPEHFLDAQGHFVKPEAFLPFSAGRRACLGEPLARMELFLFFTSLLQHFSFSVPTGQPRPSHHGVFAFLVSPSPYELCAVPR
T2 sequence (P20815 whole entry): as the sequence (P20815 whole entry) above
CYP2E1, sequence (P05181 whole entry): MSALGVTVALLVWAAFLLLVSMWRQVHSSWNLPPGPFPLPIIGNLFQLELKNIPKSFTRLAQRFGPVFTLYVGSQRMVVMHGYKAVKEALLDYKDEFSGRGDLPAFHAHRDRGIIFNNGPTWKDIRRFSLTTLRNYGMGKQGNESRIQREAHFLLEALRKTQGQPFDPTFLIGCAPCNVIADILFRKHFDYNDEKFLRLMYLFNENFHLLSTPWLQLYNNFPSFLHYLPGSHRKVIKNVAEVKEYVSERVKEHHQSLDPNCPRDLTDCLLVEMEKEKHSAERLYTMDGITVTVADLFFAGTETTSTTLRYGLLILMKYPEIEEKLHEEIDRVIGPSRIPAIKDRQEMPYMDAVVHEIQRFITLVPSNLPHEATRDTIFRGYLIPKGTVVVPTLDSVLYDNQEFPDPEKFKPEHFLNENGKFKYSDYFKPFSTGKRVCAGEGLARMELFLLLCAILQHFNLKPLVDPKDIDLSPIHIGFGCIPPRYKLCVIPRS
Cytochrome P450 2E1, sequence (P05181 whole entry): as above
CYP2D6, sequence (P10635 whole entry): as the sequence (P10635 whole entry) above
CYP3A4, sequence (P08684 whole entry): as the sequence (P08684 whole entry) above
CYP2C9, sequence (P11712 whole entry): as the sequence (P11712 whole entry) above

SMILES: CC(C)CN(C[C@@H](O)[C@H](Cc1ccccc1)NC(=O)O[C@H]1CCOC1)S(=O)(=O)c1ccc(N)cc1
- Ki (Cytochrome P450 3A4 [1]): 260 nM
- kinact (CYP3A4): 0.0122 s⁻¹
- mechanism based inhibition (Cytochrome P450 3A4 [2]): Cytochrome P450 mechanistic inhibitor: PMID 10952482
- kinact (CYP3A5 [3]): 0.00583 s⁻¹
- Ki (Cytochrome P450 3A5 [4]): 200 nM

SMILES: CCc1nc(C)c(CN2CCN(c3cc(C(F)(F)F)ccn3)CC2)[nH]1
- kinact (CYP2D6): 0.0015 s⁻¹
- Ki (Cytochrome P450 2D6 [5]): 5.5 µM
- Partition ratio (Cytochrome P450 2D6 [6]): 99

SMILES: CC(C)(c1ccccc1)N1CCCCC1
- mechanism based inhibition (Cytochrome P450 2C9 [7]): Cytochrome P450 mechanistic inhibitor: PMID 10901701
- kinact (CYP2B6): 0.00117 s⁻¹
- Ki (Cytochrome P450 2B6 [8]): 1.2 µM
- Partition ratio (Cytochrome P450 2B1 [9]): 31
- kinact (CYP2B1): 0.005 s⁻¹
- Ki (Cytochrome P450 2B1 [10]): 12 µM
- Partition ratio (Cytochrome P450 2B6 [11]): 15

SMILES: C#CCCCc1ccccc1
- mechanism based inhibition (Cytochrome P450 2B1 [12]): Cytochrome P450 mechanistic inhibitor: PMID 9760279

SMILES: CNCCN1C(=O)[C@H](OC(C)=O)[C@H](c2ccc(OC)cc2)Sc2ccccc21
- mechanism based inhibition (Cytochrome P450 3A4 [13]): Cytochrome P450 mechanistic inhibitor: PMID 10454485

SMILES: CC(C(=O)O)c1ccc(C(=O)c2cccs2)cc1 (racemic) [SUPROFEN]
- Ki (Cytochrome P450 2C9 [7]): 3.7 µM
- kinact (CYP2C9): 0.00152 s⁻¹
- Partition ratio (Cytochrome P450 2C9 [14]): 101

SMILES: O=c1cc(-c2ccccc2)oc2c1ccc1ccccc12 [ALPHA-NAPHTHOFLAVONE]
- Partition ratio (Cytochrome P450 3A6 [15]): 21
- mechanism based inhibition (Cytochrome P450 3A4 [16]): Cytochrome P450 mechanistic inhibitor: PMID 11640917
- Ki (Cytochrome P450 3A6 [17]): 80.1 µM

SMILES: CC(C)=CCC/C(C)=C/COc1c2ccoc2cc2oc(=O)ccc12 [BERGAMOTTIN]
- Ki (Cytochrome P450 3A4 [18]): 7.7 µM
- kinact (CYP2B6): 0.00145 s⁻¹
- Ki (Cytochrome P450 2B6 [8]): 5.2 µM
- Ki (Cytochrome P450 2E1): 40 µM
- kinact (CYP2E1): 0.00133 s⁻¹
- Ki (Cytochrome P450 2B4): 2800 nM
- kinact (CYP2B4): 0.00113 s⁻¹
- mechanism based inhibition (Cytochrome P450 3A4 [16]): Cytochrome P450 mechanistic inhibitor: PMID 10859150
- kinact (CYP3A5 [19]): 0.00075 s⁻¹
- Ki (Cytochrome P450 3A5 [20]): 20 µM
- kinact (CYP2B1): 0.000817 s⁻¹
- Ki (Cytochrome P450 2B1 [10]): 2.4 µM
- Partition ratio (Cytochrome P450 3A5 [21]): 20
- Partition ratio (Cytochrome P450 2B6 [11]): 2
